Here are results for 23 compounds from patent publication US20250179078A1, “INHIBITORS OF NLRP3” (PTC THERAPEUTICS, INC., priority 2022, published 2025).

One may read the IC50 as the concentration at which inhibition is half-maximal.

A value given as a limit tells only on which side of the number the result lay.

In this test the target is T1, NLRP3 (Homo sapiens, UniProt Q96P20).
T1 construct: host or cells: THP-1 cells differentiated with PMA
T1 sequence (Q96P20 whole entry): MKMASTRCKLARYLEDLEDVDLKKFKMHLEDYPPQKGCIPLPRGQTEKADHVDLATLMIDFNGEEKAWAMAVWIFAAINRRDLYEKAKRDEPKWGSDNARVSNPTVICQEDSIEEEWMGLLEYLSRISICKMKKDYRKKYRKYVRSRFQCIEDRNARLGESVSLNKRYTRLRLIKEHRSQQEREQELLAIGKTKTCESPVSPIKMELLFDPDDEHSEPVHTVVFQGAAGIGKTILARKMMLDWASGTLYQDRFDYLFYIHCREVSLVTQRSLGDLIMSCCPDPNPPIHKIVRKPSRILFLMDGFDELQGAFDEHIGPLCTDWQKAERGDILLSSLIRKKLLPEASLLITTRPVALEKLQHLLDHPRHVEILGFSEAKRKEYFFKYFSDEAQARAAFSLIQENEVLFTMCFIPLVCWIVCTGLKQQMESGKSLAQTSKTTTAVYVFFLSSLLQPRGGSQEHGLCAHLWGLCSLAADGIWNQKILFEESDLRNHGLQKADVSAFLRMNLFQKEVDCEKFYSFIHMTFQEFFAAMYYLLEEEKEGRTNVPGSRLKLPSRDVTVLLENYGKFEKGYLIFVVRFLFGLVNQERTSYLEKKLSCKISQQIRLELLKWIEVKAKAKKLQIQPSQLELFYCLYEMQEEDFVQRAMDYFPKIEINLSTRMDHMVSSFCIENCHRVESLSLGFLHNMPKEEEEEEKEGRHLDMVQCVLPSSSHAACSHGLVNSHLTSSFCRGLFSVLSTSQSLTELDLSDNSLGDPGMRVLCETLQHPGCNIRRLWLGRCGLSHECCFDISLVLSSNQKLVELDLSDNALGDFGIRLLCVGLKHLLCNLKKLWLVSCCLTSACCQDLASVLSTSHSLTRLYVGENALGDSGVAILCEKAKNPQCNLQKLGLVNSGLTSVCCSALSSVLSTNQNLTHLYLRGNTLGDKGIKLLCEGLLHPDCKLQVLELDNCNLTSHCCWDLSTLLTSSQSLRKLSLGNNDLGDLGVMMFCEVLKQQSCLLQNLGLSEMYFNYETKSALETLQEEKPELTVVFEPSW
The test is described as follows: IL-1β Secretion Assay (NLRP3-dependent IL1β secretion in THP1 cells). The class given is cell-based. The note with it: PMA-differentiated THP-1 cells; compounds incubated 20 h; 2.5 μM Nigericin 3 h; HTRF IL-1β readout; read-out: IC50 IL-1β Inhibition. As to the method:
Monocytic THP-1 cells (ATCC: TIB-202) were maintained in growth media consisting of RPMI 1640 medium (ThermoFisher, Cat #11875-085), 10% FBS (ThermoFisher) and 0.05 mM β-mercaptoethanol (ThermoFisher, Cat #21985-023), according to the provider's instructions. The cell concentration was adjusted to 7.5×10^5 cells/mL, and plated in complete growth media with a final concentration of 100 ng/mL phorbol 12-myristate 13-acetate (PMA, Sigma #P8139). Cells were seeded at 100 µL/well into a 96-well cell culture plate (ThermoFisher Cat #165305) and allowed to differentiate for 24 h in a cell culture incubator at 37° C. with 5% CO2. Cells were washed 1× with 100 ul PBS and replaced with fresh RPMI+5% FBS. Compounds were serial diluted in DMSO with 3 fold dilution for a total of 7 concentrations. Diluted compounds were added to the cells at a ratio of 1:200 and incubated for 20 h. The NLRP3 inflammasome was activated with the addition of 2.5 μM Nigericin (Sigma: Cat #SML1779-1 ml), for 3 h. After incubation, 15 μL of conditioned media was removed and assayed for levels of IL-1β using the HTRF IL-1β assay kit (Cisbio: Cat #62HIL1BPEH) as per the manufacturer's instructions.
Compounds, once produced and prepared according to the present invention, can be assessed in variety of assays to characterize their activities. For example, NLRP3-dependent IL1β secretion was evaluated in THP1 cells. IC50 values of IL1β inhibition were calculated from the plot of percentage of inhibition versus the inhibitor concentration by a logistics fit. TABLE I depict examples of compounds according to generic Formula I. Data which is <1 nM is listed as *****; data 1-10 nM is listed as ****; data 10-100 nM is listed as ***, data 100-300 nM is listed as **, data ≥300 nM is listed as *.
Background: In TR-FRET formats the signal depends on donor and acceptor labels being close together.
For `COc1ccc(-c2nnc(N[C@H]3C[C@@](C)(CO)C3)n3cncc23)c(CC(F)(F)F)c1` [Compound 341, [(1s,3s)-3-({1-[4-methoxy-2-(2,2,2-trifluoroethyl)phenyl]imidazo[1,5-d][1,2,4]triazin-4-yl}amino)-1-methylcyclobutyl]methanol], the IC50 was 10 to 100 nM.

Consider `COc1ccc(-c2nnc(NC34CC(CO)(C3)C4)n3cccc23)c(OC(F)(F)F)c1` [Compound 94, [3-({1-[4-methoxy-2-(trifluoromethoxy)phenyl]pyrrolo[1,2-d][1,2,4]triazin-4-yl}amino)bicyclo[1.1.1]pentan-1-yl]methanol], for which the IC50 fell in the range of 10 to 100 nM.

On to `C[C@]1(O)C[C@@H](Nc2nnc(-c3ccc(C(F)(F)F)cc3C(F)(F)F)c3c(F)ccn23)C1` [Compound 38, (1s,3s)-3-({1-[2,4-bis(trifluoromethyl)phenyl]-8-fluoropyrrolo[1,2-d][1,2,4]triazin-4-yl}amino)-1-methylcyclobutan-1-ol], for which the half-inhibitory concentration (IC50) is 10 to 100 nM.

For the compound `O=C1NCCC1Nc1nnc(-c2ccc(C(F)(F)F)cc2CC(F)(F)F)c2cncn12` (centres unmarked) [Compound 265, 3-({1-[2-(2,2,2-trifluoroethyl)-4-(trifluoromethyl)phenyl]imidazo[1,5-d][1,2,4]triazin-4-yl}amino)pyrrolidin-2-one], the IC50 was < 1 nM.

On to `CN1CCC[C@@H](Nc2nnc(-c3ccc(OC(F)F)cc3OC(F)(F)F)c3cccn23)C1` [Compound 44, 1-[4-(difluoromethoxy)-2-(trifluoromethoxy)phenyl]-N-[(3R)-1-methylpiperidin-3-yl]pyrrolo[1,2-d][1,2,4]triazin-4-amine], for which the IC50 is < 1 nM.

Turning to `CN1CCC[C@@H](Nc2nnc(-c3ccc(Cl)cc3OC(F)F)c3cncn23)C1` [Compound 190, 1-[4-chloro-2-(difluoromethoxy)phenyl]-N-[(3R)-1-methylpiperidin-3-yl]imidazo[1,5-d][1,2,4]triazin-4-amine], the IC50 was < 1 nM.

As for `CCN1CCC[C@@H](Nc2nnc(-c3ccc(C)cc3OC(F)F)c3cccn23)C1` [Compound 34, 1-[2-(difluoromethoxy)-4-methylphenyl]-N-[(3R)-1-ethylpiperidin-3-yl]pyrrolo[1,2-d][1,2,4]triazin-4-amine], the IC50 lay in the range of 1 to 10 nM.

`COc1ccc(-c2nnc(N[C@H]3C[C@@](C)(O)C3)n3cccc23)c(Cl)c1` [Compound 72, (1s,3s)-3-{[1-(2-chloro-4-methoxyphenyl)pyrrolo[1,2-d][1,2,4]triazin-4-yl]amino}-1-methylcyclobutan-1-ol]: the IC50 lay in the range of 10 to 100 nM.

For `O[C@@H]1COCC[C@H]1Nc1nnc(-c2ccc(C(F)(F)F)cc2C(F)(F)F)c2cncn12` [Compound 273, (3S,4R)-4-({1-[2,4-bis(trifluoromethyl)phenyl]imidazo[1,5-d][1,2,4]triazin-4-yl}amino)oxan-3-ol], the IC50 is 1 to 10 nM.

Consider `C[C@]1(O)C[C@@H](Nc2nnc(-c3ccc(C(F)(F)F)cc3OC(F)(F)F)c3cccn23)C1` [Compound 123, (1s,3s)-1-methyl-3-({1-[2-(trifluoromethoxy)-4-(trifluoromethyl)phenyl]pyrrolo[1,2-d][1,2,4]triazin-4-yl}amino)cyclobutan-1-ol], for which the IC50 was in the range of 1 to 10 nM.

Regarding `COc1ccc(-c2nnc(N[C@H]3C[C@@](C)(O)C3)n3ccc(F)c23)c(C(F)(F)F)c1` [Compound 130, (1s,3s)-3-({8-fluoro-1-[4-methoxy-2-(trifluoromethyl)phenyl]pyrrolo[1,2-d][1,2,4]triazin-4-yl}amino)-1-methylcyclobutan-1-ol], the half-maximal inhibitory concentration (IC50) is 1 to 10 nM.

Turning to `C[C@]1(O)C[C@@H](Nc2nnc(-c3ccc(C(F)(F)F)cc3C3CC3)c3cncn23)C1` [Compound 399, (1s,3s)-3-({1-[2-cyclopropyl-4-(trifluoromethyl)phenyl]imidazo[1,5-d][1,2,4]triazin-4-yl}amino)-1-methylcyclobutan-1-ol], the IC50 is 1 to 10 nM.

Turning to `COc1ccc(-c2nnc(N[C@H]3C[C@@](C)(O)C3)n3nc(C)cc23)c(OC(F)(F)F)c1` [Compound 391, (1s,3s)-3-({4-[4-methoxy-2-(trifluoromethoxy)phenyl]-2-methylpyrazolo[1,5-d][1,2,4]triazin-7-yl}amino)-1-methylcyclobutan-1-ol], the IC50 is 10 to 100 nM.

In the case of `COc1ccc(-c2nnc(NCCO)n3cccc23)c(OC(F)(F)F)c1` [Compound 64, 2-({1-[4-methoxy-2-(trifluoromethoxy)phenyl]pyrrolo[1,2-d][1,2,4]triazin-4-yl}amino)ethan-1-ol], the IC50 lay in the range of 10 to 100 nM.

As for `C[C@]1(O)C[C@@H](Nc2nnc(-c3ccc(Cl)cc3OC(F)(F)F)c3cncn23)C1` [Compound 299, (1s,3s)-3-({1-[4-chloro-2-(trifluoromethoxy)phenyl]imidazo[1,5-d][1,2,4]triazin-4-yl}amino)-1-methylcyclobutan-1-ol], the IC50 is 1 to 10 nM.

Take `COc1ccc(-c2nnc(N[C@@H]3CCCC[C@H]3O)n3cccc23)c(OC(F)F)c1` [Compound 177, (1R,2R)-2-({1-[2-(difluoromethoxy)-4-methoxyphenyl]pyrrolo[1,2-d][1,2,4]triazin-4-yl}amino)cyclohexan-1-ol]: the IC50 lay in the range of 10 to 100 nM.

Regarding `COc1ccc(-c2nnc(NC(C)c3cccc(O)c3)n3cncc23)c(OC(F)(F)F)c1` (single isomer, unassigned) [Compound 247], the IC50 was < 1 nM.

With `CN1CCC[C@@H](Nc2nnc(-c3ccc(C4CC4)cc3C(F)(F)F)c3cncn23)C1` [Compound 207, 1-[4-cyclopropyl-2-(trifluoromethyl)phenyl]-N-[(3R)-1-methylpiperidin-3-yl]imidazo[1,5-d][1,2,4]triazin-4-amine], the IC50 was < 1 nM.

On to `O=C1NCCC1Nc1nnc(-c2ccc(OC(F)F)cc2OC(F)(F)F)c2cncn12` (centres unmarked) [Compound 260, 3-({1-[4-(difluoromethoxy)-2-(trifluoromethoxy)phenyl]imidazo[1,5-d][1,2,4]triazin-4-yl}amino)pyrrolidin-2-one], for which the IC50 lay within 1 to 10 nM.

For `COc1ccc(-c2nnc(NCC(C)(C)O)n3cccc23)c(OC(F)(F)F)c1` [Compound 66, 1-({1-[4-methoxy-2-(trifluoromethoxy)phenyl]pyrrolo[1,2-d][1,2,4]triazin-4-yl}amino)-2-methylpropan-2-ol], the IC50 was 10 to 100 nM.

For the compound `COc1ccc(-c2nnc(NC3CCNC3=O)n3ccc(F)c23)c(C(F)(F)F)c1` (centres unmarked) [Compound 116, 3-({8-fluoro-1-[4-methoxy-2-(trifluoromethyl)phenyl]pyrrolo[1,2-d][1,2,4]triazin-4-yl}amino)pyrrolidin-2-one], the IC50 fell in the range of 10 to 100 nM.

Consider `COc1ccc(-c2nnc(N[C@@H]3CCCN(CCO)C3)n3ccc(F)c23)c(OC(F)(F)F)c1` [Compound 51, 2-[(3R)-3-({8-fluoro-1-[4-methoxy-2-(trifluoromethoxy)phenyl]pyrrolo[1,2-d][1,2,4]triazin-4-yl}amino)piperidin-1-yl]ethan-1-ol], for which the IC50 lay in the range of 1 to 10 nM.

With `COc1ccc(-c2nnc(NC3CCNC3=O)n3cncc23)c(C2CC2)c1` (centres unmarked) [Compound 320, 3-{[1-(2-cyclopropyl-4-methoxyphenyl)imidazo[1,5-d][1,2,4]triazin-4-yl]amino}pyrrolidin-2-one], the IC50 lay in the range of 10 to 100 nM.
